Data: patent US20240300934A1, “COMPOUNDS FOR MODULATING MYCOBACTERIUM TUBERCULOSIS RESPONSE” (priority 2021, published 2024)

Assays:
[1] = test system: rv2390c′::GFP reporter Mtb strain; type: cell-based, Mycobacterium tuberculosis
[2] = Human liver microsomal stability; type: in vitro ADME
[3] = Mouse pharmacokinetics, single oral dose; type: in vivo, CD-1 mice
Protocol: Blood samples were collected in K2EDTA coated tubes pre-dose, 0.5, 1, 3 and 5 hrs post-dose, placed on ice, and centrifuged to recover plasma. The recovered plasma was kept at −80° C. as needed prior to analysis, which was performed as previously described (Wang et al, 2020). In brief, a Sciex Applied Biosystems Qtrap 4000 triple-quadrupole mass spectrometer coupled to an Agilent 1260 HPLC system was used for HPLC coupled to tandem mass spectrometry (LC-MS/MS) quantitative analysis of the samples, with chromatography attained using an Agilent Zorbax SB-C8 column (2.1×30 mm; particle size, 3.5 μm) and a reverse phase gradient elution. The aqueous mobile phase consisted of Milli-Q deionized water with 0.1% formic acid (A), while the organic mobile phase was 0.1% formic acid in acetonitrile (B). The gradient set-up was as follows: 5-90% B over 2 mins, 1 min at 90% B, then an immediate drop to 5% B and an additional 1 min at 5% B. Quantification of molecules was carried out via multiple-reaction monitoring of parent/daughter transitions in electrospray positive-ionization mode, and sample analyses accepted if quality control and standard samples had concentrations within 20% of the nominal concentration. Preparation of compounds for generation of standard curves and quality control spiking solutions were performed as previously described (Wang et al, 2020). Data were processed using Analyst software (Version 1.6.2; Applied Biosystems Sciex).

[4] = biological target: T1, human CYP 450 1A2 (Homo sapiens, UniProt P05177); assay: Human cytochrome P450 inhibition, 1A2; type: in vitro ADME; details: 10 μM
T1 sequence (P05177 1-516): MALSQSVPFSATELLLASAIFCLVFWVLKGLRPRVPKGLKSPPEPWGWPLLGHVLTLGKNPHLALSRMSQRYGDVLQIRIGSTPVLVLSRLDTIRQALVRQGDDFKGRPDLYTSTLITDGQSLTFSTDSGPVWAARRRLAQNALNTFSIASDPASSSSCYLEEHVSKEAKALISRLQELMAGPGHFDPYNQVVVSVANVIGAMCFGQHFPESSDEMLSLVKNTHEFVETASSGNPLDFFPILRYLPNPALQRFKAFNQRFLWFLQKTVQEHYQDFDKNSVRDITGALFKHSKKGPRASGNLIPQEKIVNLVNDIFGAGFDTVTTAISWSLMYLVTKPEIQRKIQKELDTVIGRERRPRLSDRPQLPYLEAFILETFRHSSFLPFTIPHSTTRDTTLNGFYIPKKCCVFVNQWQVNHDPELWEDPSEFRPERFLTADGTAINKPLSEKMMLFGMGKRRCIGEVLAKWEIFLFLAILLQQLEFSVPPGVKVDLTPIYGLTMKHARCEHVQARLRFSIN

[5] = test system: human CYP 450 3A4/5; assay: Human cytochrome P450 inhibition, 3A4/5; type: in vitro ADME; details: 10 μM
[6] = test system: Mtb; assay: Mtb growth assay in cholesterol media (OD600); type: cell-based, Mycobacterium tuberculosis
[7] = test system: murine bone marrow derived macrophages phagosome; assay: Phagosomal maturation assays with sensor beads; type: cell-based, mouse; details: 10 μM
Protocol: Carboxyfluorescein (pH readout), DQ-BSA/Alexa Fluor 594 (AF594) (proteolysis readout), and 10,10′-Bis[3-carboxylpropyl]-9,9′-biacridinium (BAC)/AF594 (Cl^− readout) beads were generated as previously described (Podinovskaia et al, 2013; Tan et al, 2013; Tan et al, 2017; Yates et al, 2008). Bone marrow-derived macrophages were isolated from C57BL/6J mice (Jackson Laboratories) and maintained as described above. 2×10^5 macrophages/well were seeded into 96-well clear bottom black plates, and utilized in assays one-two days post-seeding. […] Assay buffer consisted of PBS, pH 7.2, supplemented with 5% FBS, 5 mM dextrose, 1 mM CaCl2, 2.7 mM KCl, and 0.5 mM MgCl2 in the case of assays with the carboxyfluorescein or DQ-BSA/AF594 beads (Buter et al, 2019; Dutta et al, 2020). For assays with the BAC/AF594 beads, assay buffer consisted of PBS, pH 7.2, supplemented with 5% FBS, 5 mM dextrose, 1 mM calcium acetate, 1.35 mM K2SO4, and 0.5 mM MgSO4 (Tan et al, 2013). Sensor beads at ˜2-5 beads/macrophage in appropriate assay buffer were finally added, with data acquisition on a Biotek Synergy H1 microplate reader with bottom read signal detection started within 2-3 minutes of bead addition. Excitation/emission wavelengths were 450 nm/520 nm and 490 nm/520 nm for carboxyfluorescein, 490 nm/520 nm for DQ-BSA, 365 nm/505 nm for BAC, and 590 nm/617 nm for AF594. Each experiment was run with a total of 3-5 replicate wells/condition, with temperature maintained at 37° C. throughout the assay. Wells were read every 2 minutes for 2 hours for the carboxyfluorescein bead assays, every 2 minutes for 4 hours for the DQ-BSA/AF594 bead assays, and every 1 minute for 2 hours for the BAC/AF594 bead assays. Analyses of the results were performed as previously described (Buter et al, 2019; Dutta et al, 2020; Podinovskaia et al, 2013; Tan et al, 2013).

[8] = test system: Mtb; details: PubChem AID 1259343, SID 340463129; cited from earlier work
[9] = test system: Mtb; assay: Mtb growth assay in standard 7H9 media (OD600); details: 10 μM
Description: Bacterial growth was tracked by measuring OD600 every 3 days for 12 days. […] Bacterial growth was tracked by measurement of D600 every 3 days over 12 days.

In the case of `CCSc1ncc(CN2CCN(c3nc4ccccc4o3)CC2)cn1` [Compound C6, 2-(4-((2-(ethylthio)pyrimidin-5-yl)methyl)piperazin-1-yl)benzo[d]oxazole], the “rv2390c′::GFP reporter signal upon Mtb exposure to high [Cl−] (in words)” value ([1]; 10 μM, 250 mM NaCl) is reported as “increased rv2390c′::GFP reporter signal”, the “rv2390c′::GFP Cl− response phenotype” value ([1]; compared to C6) is reported as “Y” and the “rv2390c′::GFP response phenotype” value ([1]; screen hits, high chloride (250 mM NaCl, pH 6.4)) is reported as “Increases induction in high”. The “t1/2 in human liver microsomes” value [2] was 37.6 min, the Kp at 5 h ([3]; female, CD-1, mouse, single 25 mg/kg po dose, 5 h, lung vs plasma, read-out: Mouse PK Clung/Cplasma at t = 5 h) was 0.88 and the AUC0-5 h ([3]; single 5 mg/kg oral (po) dose, plasma, CD-1 mice (n=2)) was 5481 ng·h/mL. For the same compound, the “Mouse PK AUC0-5h” value ([3]; single 25 mg/kg po dose, plasma, CD-1 mice) was 25713 ng·h/mL, the “% inhibition of CYP 1A2” value [4] was less than 1% and the “% inhibition of CYP 3A4/5” value [5] was less than 1%. For the same compound, the “effect of even chain fatty acids on growth inhibition in cholesterol media” value ([6]; 10 μM, 4 mM acetate or 200 μM stearate) was “rescue inhibition”, the “Mtb growth in cholesterol media (in words)” value ([6]; 10 μM, OD600) was “inhibited Mtb growth in cholesterol media” and the “effect of odd chain fatty acids on growth inhibition in cholesterol media” value ([6]; 10 μM, additional odd chain carbon source) was “do not rescue inhibition”. For the same compound, the “effect of vitamin B12 on growth inhibition in cholesterol media” value ([6]; 10 μM, vitamin B12 added) was “does not rescue inhibition”, the “Growth inhibition in cholesterol media phenotype” value ([6]; compared to C6) was “Y” and the “increase in [Cl−] during macrophage phagosomal maturation” value ([7]; BAC/AF594 beads) was “no significant effect”. For the same compound, the “macrophage phagosomal proteolytic activity” value ([7]; DQ-BSA/AF594 beads) was “did not affect macrophage phagosomal proteolytic activity”, the macrophage phagosomal acidification ([7]; carboxyfluorescein beads) was “did not alter macrophage phagosomal acidification” and the “growth inhibition call in previous cholesterol media screen” value [8] was “positive for growth inhibition”. For the same compound, the “Mtb growth in standard 7H9 media” value [9] was “no effect”.
